# Assay results published in PubChem BioAssay (NCI).
#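 Protocol summary: plate cells (96-well), add compound at 5 concentrations, incubate 48 h, interpolate endpoints linearly. TGI marks complete inhibition of growth.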
# What was measured:
# Test in all cases: NCI-60 cell line screen, 48 h
# SF-295 CNS = system: SF-295 CNS
# MOLT-4 leukemia = system: MOLT-4 leukemia
# MALME-3M melanoma = system: MALME-3M melanoma
# OVCAR-3 ovarian = system: OVCAR-3 ovarian
# EKVX NSCLC = system: EKVX NSCLC
# NCI-H23 lung = system: NCI-H23 lung
# OVCAR-4 ovarian = system: OVCAR-4 ovarian
# SK-MEL-5 melanoma = system: SK-MEL-5 melanoma
# UACC-62 melanoma = system: UACC-62 melanoma
# UACC-257 melanoma = system: UACC-257 melanoma
# COLO 205 colon = system: COLO 205 colon
# NCI-H226 lung = system: NCI-H226 lung
# SN12C renal = system: SN12C renal
# MDA-MB-231 breast = system: MDA-MB-231 breast
# CAKI-1 renal = system: CAKI-1 renal
# ACHN renal = system: ACHN renal
# MDA-N = system: MDA-N
# HCT-15 colon = system: HCT-15 colon
# T-47D breast = system: T-47D breast
SMILES,TGI (SF-295 CNS) [µM],TGI (MOLT-4 leukemia) [µM],TGI (MALME-3M melanoma) [µM],TGI (OVCAR-3 ovarian) [µM],TGI (EKVX NSCLC) [µM],TGI (NCI-H23 lung) [µM],TGI (OVCAR-4 ovarian) [µM],TGI (SK-MEL-5 melanoma) [µM],TGI (UACC-62 melanoma) [µM],TGI (UACC-257 melanoma) [µM],TGI (COLO 205 colon) [µM],TGI (NCI-H226 lung) [µM],TGI (SN12C renal) [µM],TGI (MDA-MB-231 breast) [µM],TGI (CAKI-1 renal) [µM],TGI (ACHN renal) [µM],TGI (MDA-N) [µM],TGI (HCT-15 colon) [µM],TGI (T-47D breast) [µM]
C=C(Cl)C(C)(Cl)CCC(Br)C(C)(C)Cl (stereo not drawn),88.6,> 100,38.4,32.4,> 100,50.7,33.1,30.8,30.9,30.5,31.8,> 100,31.6,28.7,50.1,31.8,33,,
COc1cc2c3c(c1OC)C1(C=CC(=O)C=C1)C[C@H]3N(C)CC2,> 100,> 100,> 100,> 100,> 100,> 100,,> 100,> 100,> 100,> 100,> 100,> 100,,,> 100,,> 100,
COc1cc(OC)c(C2c3cc4c(cc3OC(N3CCCC3)C2C)OCO4)c(OC)c1 (stereo not drawn),36.1,31.6,,20.5,> 100,59.1,,29.4,69.6,73,,,47.9,,,30.7,35.4,52.3,> 100
CCOC(=O)C1C2CCC1CC(=NNc1ccc([N+](=O)[O-])cc1[N+](=O)[O-])C2 (stereo not drawn),> 50,> 50,> 50,> 50,> 50,> 50,> 50,> 50,> 50,> 50,> 50,> 50,> 50,> 50,> 50,> 50,> 50,> 50,
C=C1CN2CC(=C)CN(C1)CS(=O)(=O)N1CC(=C)CN(CC(=C)C1)S(=O)(=O)N1CC(=C)CN(CC(=C)C1)S(=O)(=O)C2,> 100,> 100,86.4,> 100,> 100,> 100,> 100,48,> 100,94.4,> 100,71.5,> 100,92.1,> 100,> 100,> 100,> 100,
O=C1/C(=C/c2ccc(Cl)cc2)CSc2ccccc21,,> 100,74.4,49.1,,45.1,71.4,46,14.6,37.4,64.3,45.2,43.4,55.9,46.7,,61.7,> 100,58.3
CCCCN=C(c1ccccc1)N1CCOCC1,> 100,> 100,> 100,> 100,> 100,> 100,,> 100,> 100,> 100,> 100,> 100,> 100,> 100,> 100,> 100,> 100,> 100,
Cc1ccc(O)c(-c2cscn2)c1,> 100,> 100,> 100,> 100,> 100,> 100,> 100,> 100,> 100,> 100,> 100,,> 100,,> 100,> 100,> 100,> 100,
COc1ccc(C2COc3cc(O)c(O)cc3C2)cc1 (stereo not drawn),205,24.6,59.3,28.1,49.9,159,45.6,72.4,46.3,181,27.8,213,166,,52.9,,,99.3,
Cc1ccc(S(=O)(=O)NC(=O)N[C@@H](Cc2cnc[nH]2)C(=O)O)cc1,> 100,> 100,> 100,,,> 100,> 100,> 100,> 100,> 100,> 100,,> 100,> 100,,> 100,> 100,> 100,> 100
CSc1sc2ccccc2[s+]1,> 100,> 100,> 100,,,,> 100,> 100,> 100,> 100,> 100,> 100,> 100,,> 100,> 100,,> 100,
O=C1O[C@H](c2ccc3c(c2)OCO3)[C@H]2CO[C@@H](c3ccc4c(c3)OCO4)[C@@H]12,> 100,> 100,> 100,,> 100,> 100,> 100,> 100,> 100,> 100,> 100,> 100,> 100,> 100,> 100,> 100,> 100,> 100,
O=C(O)c1ccc(OCc2nc3cc(C(F)(F)F)ccc3nc2-c2ccccc2)cc1,> 100,,,> 100,> 100,> 100,,> 100,> 100,> 100,37.8,> 100,> 100,> 100,19.6,67.6,> 100,> 100,> 100
O=NN(CCCl)C(=O)NC1CCC(O)CC1 (stereo not drawn),> 80.2,68.4,> 71.1,> 89.8,> 100,> 100,> 100,> 100,40.4,> 85.2,> 72.9,> 100,> 100,,> 89.6,,,58.2,
CC(C)CC(O)P(=O)(O)O (stereo not drawn),> 100,> 100,,> 100,> 100,,> 100,> 100,> 100,> 100,> 100,> 100,> 100,> 100,> 100,> 100,> 100,,> 100
C=C([C@@]1(O)C[C@H]2[C@H](CCC2(OC)OC)[C@@H]2c3ccccc3O[C@@H]21)[Si](C)(C)C,> 100,> 100,,> 100,> 100,,> 100,> 100,> 100,> 100,> 100,> 100,> 100,> 100,> 100,> 100,> 100,> 100,> 100
Nc1ccc(C(=O)N2CCC[C@H]2CO)c(N)c1,> 100,> 100,,> 100,> 100,> 100,> 100,> 100,> 100,> 100,> 100,> 100,> 100,> 100,> 100,> 100,> 100,> 100,> 100
CSc1ncnc2c1ncn2CCC#N,> 100,> 100,> 100,> 100,> 100,> 100,> 100,> 100,,> 100,> 100,> 100,> 100,> 100,> 100,> 100,> 100,,
[N-]=[N+]=NC1=C(c2ccccn2)C(=O)c2cccc3cccc1c23,> 100,6.16,> 100,> 100,,> 100,> 100,22.1,> 100,98.4,> 100,,> 100,> 100,> 100,> 100,> 100,> 100,> 100
CC(=O)OCC1OC(n2c3c(cc(C#N)c2=S)CCCCC3)C(OC(C)=O)C(OC(C)=O)C1OC(C)=O (stereo not drawn),> 100,> 100,> 100,> 100,,> 100,> 100,> 100,> 100,> 100,> 100,> 100,> 100,> 100,> 100,> 100,> 100,> 100,> 100
Nc1ccn(C2OC(CO)C(O)C2O)c(=O)c1 (stereo not drawn),> 625,,365,> 625,,> 625,> 625,> 625,> 625,,> 625,> 625,381,,> 625,,,> 625,
CCOc1ccc(/C=C2/C(=O)N=C(NC(C)=O)N2C)cc1,> 100,> 100,,> 100,> 100,> 100,> 100,> 100,> 100,> 100,> 100,> 100,> 100,> 100,> 100,> 100,> 100,> 100,> 100
CC(C)=CCNc1ncnc2c1ncn2CCC#N,> 100,> 100,> 100,> 100,,> 100,> 100,> 100,> 100,,> 100,> 100,> 100,> 100,,> 100,> 100,> 100,> 100
CC(C)(Cl)C(Br)CCC(=CCCl)CBr (mixture of isomers),13,> 21.2,4.85,3.9,36.1,4.28,5.31,11.9,5.41,6.81,5.15,45,7.06,3.5,,7.85,3.28,3,
COc1ccc(N2C(=O)CSC2c2c[nH]c3ccccc23)cc1 (stereo not drawn),> 100,> 100,,> 100,> 100,> 100,> 100,> 100,> 100,> 100,> 100,,> 100,> 100,,,> 100,> 100,> 100
Nc1[nH]nc2nc3ccc(C(F)(F)F)cc3nc12,97.3,> 100,> 100,,> 100,57.2,> 100,> 100,69.1,45.4,57.3,,> 100,> 100,> 100,> 100,> 100,> 100,
COC(=O)C1=C(C)NC(C)=C(C(=O)OC)C1c1nc2sccn2c1[N+](=O)[O-],> 100,> 100,,> 100,> 100,> 100,> 100,> 100,> 100,> 100,> 100,> 100,> 100,> 100,> 100,> 100,,> 100,> 100
O=C(N/N=C/c1cc(Br)cc(Br)c1[O-])c1ccccc1O.O=C(N/N=C/c1cc(Br)cc(Br)c1[O-])c1ccccc1O.[Cu+2],1.24,2.54,1.35,0.702,,0.484,0.56,0.844,0.551,1.74,,1.98,,,,2.42,,1.77,
COC(=O)C1CCCN1C(=O)C(Cc1cn(S(=O)(=O)c2ccc(C)cc2)cn1)NC(=O)OC(C)(C)C (stereo not drawn),,> 100,> 100,,> 100,> 100,,> 100,> 100,> 100,,> 100,> 100,> 100,,> 100,> 100,> 100,
